Results taken from US12145959B2, “Bile acid recycling inhibitors for treatment of hypercholemia and cholestatic liver disease” (SHIRE HUMAN GENETIC THERAPIES, INC., priority 2011, dated 2024).

Tests used:
[1] = test system: Male ZDF rats; test: Plasma bile acid levels of ZDF rats after ascending doses of SC-435 and LUM002; assay type: in vivo, rat; conditions: ZDF rats n=4; oral gavage twice a day 2 weeks; all doses (SC-435 1, 10, 30 mg/kg; LUM002 0.3, 1, 3, 10, 30 mg/kg); end of second week
Procedure: (§1) FIG. 2. Plasma bile acid levels of ZDF rats after administration of ascending doses of SC-435 and LUM002. Male ZDF rats (n=4) were administered vehicle, SC-435 (1, 10 or 30 mg/kg) or LUM002 (0.3, 1, 3, 10 or 30 mg/kg) by oral gavage twice a day for 2 weeks. Plasma bile acid levels were determined at the end of the second week. Data are expressed as mean values±SEM.
as §1, with “Plasma” for “FIG. 2. Plasma”, “week. […]” for “week.”

[2] = test system: Male Zucker diabetic fatty rats (ZDF/GmiCrl-fa/fa); test: ZDF rat study of 264W94: fecal bile acid excretion, fecal NEFA and plasma bile acids; assay type: in vivo; conditions: 2 weeks
Procedure: Animal preparation. Male Zucker diabetic fatty rats (ZDF/GmiCrl-fa/fa) were purchased from Charles River (Raleigh, NC) and housed under controlled conditions (12:12 light-dark cycle, 24° C. and 50% relative humidity) with free access to rodent food (Purina 5008, Harlan Teklad, Indianapolis, IN). All rats arrived at seven weeks of age (+3 days). After a one-week acclimation period, rats were anesthetized with isoflurane (Abbott Laboratories, IL) and tail-vein blood samples were collected at 9 am without fasting. Blood glucose levels were measured using a glucometer (Bayer, Leverkusen, Germany). In order to ensure balanced treatment groups, ZDF rats were assigned to six treatment groups based upon baseline glucose: vehicle (0.5% HPMC, 0.1% Tween80) and five doses of 264W94 (0.001, 0.01, 0.1, 1, 10 mg/kg). All treatments were given via oral gavage twice a day and animals were followed for two weeks with blood samples collected from tail vein at the end of each week at 9 am without fasting. Fecal samples were collected for 24 hours during the second week of treatment.
Measurement of clinical chemistry parameters. Non-esterified fatty acids (NEFA), bile acids, and bile acids in fecal extraction were measured using the Olympus AU640 clinical chemistry analyzer (Beckman Coulter, Irving, TX).

[3] = Systemic exposure (pharmacokinetics) of LUM001 in patients under 18, study NB-00-02-014; assay type: in vivo, human; conditions: QD in the morning, measured on day eight
Procedure: (§2) LUM001 has been administered to forty patients under the age of 18 years old. […] The drug was administered once-a-day (QD) in the morning for fourteen days. […] These doses are similar to those using to treat patients with cholestatic diseases.

[4] = test system: Male beagle dogs; test: Duration of action on dog serum bile acids, Method 2: one meal and extended interval between dosing and feeding; assay type: in vivo; conditions: administered 2 hours prior to feeding
Procedure: (§3) Dosage preparation and administration: LUM001 was dissolved in water at concentrations that required the administration of 0.2 ml/kg of solution. Solutions were placed into gelatin capsules, Torpac Inc., size 13 Batch 594, East Hanover NJ, and administered orally.
(§4) Dogs: Male beagle dogs were obtained from Covance Research Products, Cumberland VA or Marshall Farms USA, Inc., North Rose NY A total of 20 dogs, 1 to 5 years old, 6.8 to 15.6 kg body weight, were used in these experiments. The dogs were conditioned to a 12 hour light/dark cycle and maintained on a feeding restriction of 1 hour per day access to food (Richman Standard Certified Canine Diet #5007, PMI Nutrition, Inc., St Louis MO) from 7 to 8 AM. They were trained to eat a special meal promptly within 20 minutes when presented (1 can. 397 g, Evanger's 100% Beef for Dogs, Evanger's Dog and Cat Food Co., Inc., Wheeling IL, mixed with 50 g of sharp cheddar cheese.).
(§5) Serum Total Bile Acid (SBA) Measurement: SBA was measured by an enzymatic assay. SBA values are expressed as μg of total bile acids/ml of serum.
Method 2: One Meal and Extended Interval Between Dosing and Feeding: Alternatively, 6 dogs were dosed with water or LUM001, at 0.05 mg/kg, p.o. at 1.5 hours prior to being fed, or 0.05, or 0.2 mg/kg, at 2 hours prior to feeding. This moved the elevated SBA plateau out in time from the dose point. […]

[5] = test system: children and adolescents under the age of eighteen; test: Human study of fasting and post-prandial peak serum bile acids in children and adolescents; assay type: in vivo
Procedure: FIG. 5. Fasting serum bile acid levels and morning post-prandial peak in children under the age of 12. LUM001 was administered once-a-day (QD) in the morning for fourteen days.
Human Study to Test Efficacy of ASBTI in Lowering Serum Bile Acids
as §2
The efficacy of LUM001 was determined by measuring total serum bile acids after eight days of dosing in children and adolescents under the age of eighteen. Thirty minutes before the next drug administration, at approximately 8 am in the morning, serum bile acid levels were measured. The child had refrained from food for 12 hours prior to this sample thus providing a fasted level of serum bile acid. After breakfast, serum bile acids were measured for up to the next 4 hours (8 am to noon) and the peak serum bile acid concentration noted.

[6] = test system: healthy adult subjects; test: Phase 1 ascending multiple oral dose study: serum and fecal bile acid analysis; assay type: in vivo, human; conditions: healthy adults; ascending multiple oral doses qAM, 28 days
Procedure: FIG. 3. Serum bile acid (SBA) analysis of healthy subjects after administration of ascending multiple oral doses of LUM001 a randomized, double-blind, placebo-controlled study. Shown in the graphs are data from the 0.5 (n=16), 1.0 (n=8), 2.5 (n=8), 5.0 (n=8) and 10 (n=8) mg dosing groups. On Day 1, blood was drawn for baseline SBA at approximately 30 minutes before and after breakfast and 30 minutes after lunch and dinner. Samples were obtained on day 14.
FIG. 4. Fecal bile acid analysis of healthy subjects after administration of ascending multiple oral doses of LUM001 a randomized, double-blind, placebo-controlled study. […]
SBA were analyzed as part of the routine clinical analysis of the serum samples collected at each time point.
Fecal Bile Acid Analysis: Fecal samples were collected for all panels except the dose-titration panel, 2.5 (2) and 5 mg (2), on Days 9 through 14 and 23 through 28 (data shown in FIG. 4). Twenty-four hour FBA excretions were quantified by Pharmacia for Days 9 through 14 and 23 through 28. […] The weight of each 24-hour fecal collection was recorded on the CRFs. […]
An aliquot for each 24-hour fecal sample collected on Days 23 through 28 was combined, homogenized, and analyzed for bile acid species concentrations by ANAPHARM. The fecal bile acid species evaluated include chenodeoxycholic acid, cholic acid, deoxycholic acid, and lithocholic acid.

[7] = test system: Male beagle dogs; conditions: previous experiments (2); cited from earlier work
[8] = test system: Male beagle dogs; test: Time to onset of activity of a single oral dose on postprandial total serum bile acids in beagle dogs; assay type: in vivo, dog
Procedure: Animal Study on the Duration of Action and Time to Onset of ASBTI Activity of a Single Oral Dose of LUM001 on Postprandial Total Serum Bile Acids in Beagle Dogs
Test compound: LUM001—Form I
as §3, §4, §5
To estimate the details of this plateau, 6 dogs were given a test meal and blood samples for SBA measurement were collected at −30, 0, 30, 60, 65, 70, 80, 90, 120, 180, 240, 360, 480, 720, 1410 and 1440 minutes from the time of feeding. Any remaining food was removed 20 min after it was first presented to the dogs. To establish a method for extending the elevated plateau of SBA, 6 dogs were given the meal at 0 hr and an additional ½ size meal again 4 hr after their first meal. Blood samples were taken at 0, 1, 2, 3, 4, 4.5, 6, 7 and 8 hr. The curves for SBA level vs time obtained in these experiments were used as references for determining blood sampling times in experiments with LUM001. […]

[9] = FIG. 5 legend: children under the age of 12, QD for fourteen days
[10] = LUM001 treated patients under eighteen, after eight days of dosing
[11] = patients under eighteen, after eight days of dosing

Q: For `CCCC[C@]1(CC)CS(=O)(=O)c2ccc(N(C)C)cc2[C@@H](c2cccc(NC(=O)N[C@@H]3O[C@H](COS(=O)(=O)[O-])[C@@H](O)[C@H](OCc4ccccc4)[C@H]3O)c2)[C@H]1O.[K+]` [LUM002], which “Plasma bile acid levels” value [1] is on record?
A: decreased

Q: With `CCCCC1(CCCC)CS(=O)(=O)c2ccc(N(C)C)cc2[C@@H](c2ccc(OCCCC[N+]34CCN(CC3)CC4)cc2)[C@H]1O.CS(=O)(=O)[O-]` [SC-435, 1-[4-[4-[(4R,5R)-3,3-dibutyl-7-(dimethylamino)-2,3,4,5-tetrahydro-4-hydroxy-1,1-dioxido-1-benzothiepin-5-yl]phenoxy]butyl]4-aza-1-azoniabicyclo[2.2.2]octane methanesulfonate salt, reference compound] as the compound, how does the “Plasma bile acid levels” value [1] read?
A: decreased

Q: For `CCCC[C@]1(CC)CS(=O)(=O)c2cc(OC)c(OC)cc2[C@@H](c2ccccc2)N1` [Compound 264W94], which “Fecal bile acid concentrations elevated, compared to vehicle treated rats” value ([2]; 0.001-10 mg/kg oral gavage twice a day, 24 h feces in second week, maximum elevation) is on record?
A: up to 6.5 fold

Q: And the “Bile acids in the feces” value ([2]; oral administration twice a day)?
A: dose-dependently increased

Q: With `CCCCC1(CCCC)CS(=O)(=O)c2ccc(N(C)C)cc2[C@@H](c2ccc(OCc3ccc(C[N+]45CCN(CC4)CC5)cc3)cc2)[C@H]1O` [LUM001] as the compound, how does the “Systemic absorption (levels of systemic exposure)” value [3] read?
A: minimally absorbed

Q: What about the “Dose required to produce a significant effect on SBA” value [4] of the same compound?
A: 0.2 mg/kg

Q: And the “Decrease in average fasting serum bile acid level versus placebo patients” value [5, 9]?
A: 24%

Q: What about the “Decrease in average post-prandial peak serum bile acid level versus placebo patients” value [5, 9] of the same compound?
A: 23%

Q: What about the “Average fasting serum bile acid level” value [5, 10] of the same compound?
A: 6.5 µmol/L

Q: What about the “Average post-prandial peak serum bile acid level” value [5, 10] of the same compound?
A: 9.2 µmol/L

Q: And the “Decrease in average fasting serum bile acid level versus placebo patients” value [5, 11]?
A: 24%

Q: And the “Decrease in average post-prandial peak serum bile acid level versus placebo patients” value [5, 11]?
A: 23%

Q: And the Fecal bile acids [6]?
A: significant increase

Q: And the Serum bile acids [6]?
A: significant reduction

Q: What about the “Time that the compound remains active” value [7] of the same compound?
A: more than 4.5 hours

Q: And the “Effect of increasing the dose on onset time to significant SBA lowering” value ([8]; 1 mg/kg versus 0.2 mg/kg)?
A: did not shorten the onset time

Q: And the ED50 ([8]; Canis lupus familiaris, oral, read-out: ED50 dose in the dog SBA model)?
A: 0.2 mg/kg

Q: What about the “Threshold dose for significant lowering of SBA levels” value ([8]; oral, 1 hour after feeding) of the same compound?
A: 0.05 mg/kg
